The target of one data set is neurotensin receptors (Homo sapiens, UniProt P30989). As to the kind of experiment: Competitive binding assay on frozen tissue sections of receptor-positive human tumors vs radioiodinated native neurotensin. Conditions: Table 3. The text has this:
Frozen tissue sections from receptor-positive human tumors were used in a competitive binding assay.

Data set [1] is described as follows: In vitro urine stability assay (HPLC) of In-111 labeled peptide. It is filed as in vitro ADME. The settings on record: rat urine, 37EC, 4 hours. The procedure, abridged: (§1)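 The peptide was labeled with ^111InCl3 in sodium acetate/ascorbic acid buffer for 30 min at room temperature, then diluted in 5% ethanol/PBS. It was incubated at 37 °C in human serum or rat urine for set times. Filtered aliquots were analyzed by HPLC.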

Data set [2] can be described thus: In vitro serum stability assay (HPLC) of In-111 labeled peptide. It is filed as in vitro ADME, human. Conditions: human serum, 37EC, 4 hours. The procedure, abridged: as §1
The target in data set [3] is T1, HT 29 colon adenocarcinoma cells (Homo sapiens, UniProt P30989).
T1 construct: host or cells: HT 29 colon adenocarcinoma cells (endogenous receptors)
T1 sequence (P30989 whole entry): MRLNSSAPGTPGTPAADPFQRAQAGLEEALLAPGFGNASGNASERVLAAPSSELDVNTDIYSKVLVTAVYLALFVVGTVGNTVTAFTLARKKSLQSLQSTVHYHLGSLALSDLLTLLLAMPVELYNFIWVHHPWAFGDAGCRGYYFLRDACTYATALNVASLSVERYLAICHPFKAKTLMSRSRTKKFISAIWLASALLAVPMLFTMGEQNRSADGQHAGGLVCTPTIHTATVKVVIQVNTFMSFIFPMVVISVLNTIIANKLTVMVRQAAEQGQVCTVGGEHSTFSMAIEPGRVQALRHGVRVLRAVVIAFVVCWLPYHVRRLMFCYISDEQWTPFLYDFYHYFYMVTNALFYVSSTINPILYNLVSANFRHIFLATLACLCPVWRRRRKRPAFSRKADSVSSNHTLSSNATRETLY
Conditions: Ψ(CH2NH) pseudo-peptide analogs; cited from earlier work.

Data set [4] deals with human brain neurotensin membranes. The settings on record: read-out: Kd for binding on human brain neurotensin membranes; cited from earlier work.
For data set [5], the target named is rat brain synaptic membranes. The settings on record: read-out: Kd binding to rat brain synaptic membranes; cited from earlier work.

The values below come from patent US7015306B2 (BioSynthema, Inc., priority 1999, dated 2006).

Where a SMILES comes first, the peptide text is derived from it. [ ]: non-standard residue; d: D form. The star is where a group is joined. ξ: configuration not given here. DTPA = O=C(O)CN(CCN(CC(=O)O)CC(=O)O)CCN(CC(=O)O)CC(=O)*; ξGly(4-Pip(1-amidino)) = N=C(N)N1CCC(C(N)C(=O)O)CC1; ξGly(piperidin-4-yl) = NC(C(=O)O)C1CCNCC1; mTyr = N[C@@H](Cc1cccc(O)c1)C(=O)O; Tle = CC(C)(C)[C@H](N)C(=O)O

neurotensin receptors, sequence (P30989 whole entry): as above

Take `CC(C)C[C@H](NC(=O)[C@@H](NC(=O)[C@H](Cc1cccc(O)c1)NC(=O)[C@@H]1CCCN1C(=O)[C@H](CCCNC(=N)N)NC(=O)C(NC(=O)[C@@H]1CCCN1C(=O)[C@@H](CCCCN)NC(=O)CN(CCN(CCN(CC(=O)O)CC(=O)O)CC(=O)O)CC(=O)O)C1CCN(C(=N)N)CC1)C(C)(C)C)C(=O)O` (stereo partly drawn) [DTPA-DLys-Pro-Gly(PipAm)-Arg-Pro-mTyr-tBuGly-Leu-OH] ({DTPA}-[dK]P[ξGly(4-Pip(1-amidino))]RP[mTyr][Tle]L-OH): on neurotensin receptors, binding was characterised by a dissociation constant (Kd) of 0.3 µM. In data set [1], the “% of peptide at 4 hours after incubation at 37EC, Urine” value was determined as 57.8%. Moreover, the “% of peptide at 4 hours after incubation at 37EC, Serum” value in data set [2] was 84.4%.

Consider `CC(C)C[C@H](NC(=O)[C@@H](NC(=O)[C@H](Cc1ccc(O)cc1)NC(=O)[C@@H]1CCCN1C(=O)C(NC(=O)C(NC(=O)[C@@H]1CCCN1C(=O)[C@@H](CCCCN)NC(=O)CN(CCN(CCN(CC(=O)O)CC(=O)O)CC(=O)O)CC(=O)O)C1CCN(C(=N)N)CC1)C1CCNCC1)C(C)(C)C)C(=O)O` (stereo partly drawn) [DTPA-DLys-Pro-Gly(PipAm)-PipGly-Pro-Tyr-tBuGly-Leu-OH] ({DTPA}-[dK]P[ξGly(4-Pip(1-amidino))][ξGly(piperidin-4-yl)]PY[Tle]L-OH), for which, at neurotensin receptors, the Kd – broadly, the concentration at which binding is half-saturated – was found to be 0.14 µM. The “% of peptide at 4 hours after incubation at 37EC, Urine” value in data set [1] is recorded as 79.7%. In data set [2], the “% of peptide at 4 hours after incubation at 37EC, Serum” value is reported as 91.6%.

Consider “DTPA-Lys^8(Ψ-CH2NH)Arg^9-Pro-Tyr-Ile-Leu-OH ({DTPA}-KRPYIL-OH; also: reduced CH2NH bond between Lys and Arg) [DTPA-Lys^8-Ψ(CH2NH)-Arg^8-NT(8–13)]”, for which, in data set [3], the Kd is 0.013 µM.

For the compound DTPA-Lys^8-Ψ(CH2NH)-Lys^8-NT(8–13), in data set [3], the Kd is 0.0074 µM.

Take “monoiodo-125 derivative of natural neurotensin: monoiodo-125 derivative of natural neurotensin, radioiodo analog from the literature”: the Kd in data set [4] was 0.00026 µM.

As for “monoiodo-125-[Trp^11]-neurotensin (QLYENKPRRPWIL; Neurotensin monoiodo 125I label; UniProt P30990 151-163, looked up, variant Y11W)”, the Kd in data set [5] is 0.0001 µM.
